US12018058B2, “Compositions and methods for diagnosing and/or treating kidney injury” (Boston Medical Center Corporation, priority 2018, dated 2024)
Square brackets hold non-standard residues; d marks the D form. Peptide text beside a SMILES is read from it. βAla = NCCC(=O)O

Target: T1, NPM-Bax complex (Homo sapiens, UniProt P06748)
T1 construct: endogenous in cells; host or cells: primary human proximal tubule epithelial cells (PTEC), ATP-depleted
Experiment: NPM-Bax interaction, active Bax immunoprecipitates from PTEC lysates after ATP depletion
Type: cell-based
Conditions: for Bax-NPM interaction in renal epithelial cells in vitro: PTEC, 60 min ATP depletion plus 30 min recovery, FIG. 9A
Method: Similar amounts of Bax were detected in each lane, and input protein amounts for each sample were identical. IB, immunoblot; IP, immunoprecipitation.
Cell, tissue, and urinary proteins were harvested using PD buffer containing 40 mM Tris-HCl, pH 8.0, 500 mM NaCl, 0.1% Nonidet P-40, 6 mM EGTA, and a protease inhibitor cocktail (Set I; Calbiochem, San Diego, CA). NPM was immunoprecipitated overnight with NPM antibodies (catalog no. B0556; Sigma-Aldrich) in the presence of protein A/G-agarose beads at 4° C. NPM accumulation was measured in cytosolic samples extracted with low-dose digitonin ([…]).13 Cytosolic proteins were extracted from renal cortical tissue samples using an extraction kit (Biochain Institute, Newark, CA). Briefly, 50-100 mg of kidney cortex tissue was minced on ice and spin washed with 1 ml ice-cold wash buffer before adding […] of buffer C. The mixture was rotated at 4° C. for 20 minutes and then centrifuged at 18,0003 g at 4° C. for 20 minutes before being harvested. Protein levels were measured with the bicinchoninic acid assay (Thermo Scientific, Rockford, IL).

T1 sequence (P06748 whole entry, one chain of several): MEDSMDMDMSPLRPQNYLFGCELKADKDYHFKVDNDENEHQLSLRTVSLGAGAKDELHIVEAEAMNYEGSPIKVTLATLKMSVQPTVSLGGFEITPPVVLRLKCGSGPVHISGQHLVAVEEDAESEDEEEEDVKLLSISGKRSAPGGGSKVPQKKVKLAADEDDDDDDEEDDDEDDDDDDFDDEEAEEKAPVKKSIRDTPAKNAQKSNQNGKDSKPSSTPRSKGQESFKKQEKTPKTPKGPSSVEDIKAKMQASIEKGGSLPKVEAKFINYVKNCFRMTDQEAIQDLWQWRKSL

## CC[C@H](C)[C@H](NC(=O)[C@@H](NC(=O)[C@H](CC(C)C)NC(=O)[C@H](CO)NC(=O)[C@H](C)NC(=O)[C@@H](NC(=O)[C@H](CC(C)C)NC(=O)[C@@H](NC(=O)CNC(=O)[C@H](C)NC(=O)[C@@H](NC(=O)[C@H](Cc1ccccc1)NC(=O)[C@@H](NC(=O)[C@@H](NC(=O)[C@@H](NC(=O)[C@@H](NC(=O)CCNC(=O)[C@@H](NC(=O)[C@H](CCCCN)NC(=O)[C@H](CCCNC(=N)N)NC(=O)[C@H](CCCCN)NC(=O)[C@H](CCCCN)NC(=O)[C@H](CCCCN)NC(C)=O)C(C)C)[C@@H](C)O)C(C)C)[C@@H](C)O)[C@@H](C)CC)C(C)C)C(C)C)[C@@H](C)O)[C@@H](C)O)C(=O)N[C@@H](Cc1c[nH]c2ccccc12)C(=O)N[C@@H](CCCCN)C(=O)N[C@@H](CCCCN)C(=O)N[C@@H](CCSC)C(=O)NCC(=O)O [Peptide #1] (Ac-KKKRKV[βAla]TVTIFVAGVLTASLTIWKKMG-OH)
FIG. 9
  Decrease of NPM-Bax complex formation in vitro: about 50%
  Bax-NPM interaction in renal epithelial cells in vitro: markedly decreases
Listed as Blocking peptide
  Bax-NPM interaction in renal epithelial cells in vitro: markedly reduced
Listed as NPM-Bax blocking peptide (Peptide #1)
  Bax-NPM interaction in renal epithelial cells in vitro: decreases
